Experiments:
[1] = target: T1, Human Vitronectin Receptor (VnR) αvβ3 (Homo sapiens, UniProt P05106+P06756); test: K/VnR test: inhibition of the binding of kistrin to human vitronectin receptor (ELISA)
T1 construct: Human vitronectin receptor was isolated from human placenta using the method of Pytela et al; from tissue; host or cells: human placenta
T1 sequence (P06756 31-889 limits assumed): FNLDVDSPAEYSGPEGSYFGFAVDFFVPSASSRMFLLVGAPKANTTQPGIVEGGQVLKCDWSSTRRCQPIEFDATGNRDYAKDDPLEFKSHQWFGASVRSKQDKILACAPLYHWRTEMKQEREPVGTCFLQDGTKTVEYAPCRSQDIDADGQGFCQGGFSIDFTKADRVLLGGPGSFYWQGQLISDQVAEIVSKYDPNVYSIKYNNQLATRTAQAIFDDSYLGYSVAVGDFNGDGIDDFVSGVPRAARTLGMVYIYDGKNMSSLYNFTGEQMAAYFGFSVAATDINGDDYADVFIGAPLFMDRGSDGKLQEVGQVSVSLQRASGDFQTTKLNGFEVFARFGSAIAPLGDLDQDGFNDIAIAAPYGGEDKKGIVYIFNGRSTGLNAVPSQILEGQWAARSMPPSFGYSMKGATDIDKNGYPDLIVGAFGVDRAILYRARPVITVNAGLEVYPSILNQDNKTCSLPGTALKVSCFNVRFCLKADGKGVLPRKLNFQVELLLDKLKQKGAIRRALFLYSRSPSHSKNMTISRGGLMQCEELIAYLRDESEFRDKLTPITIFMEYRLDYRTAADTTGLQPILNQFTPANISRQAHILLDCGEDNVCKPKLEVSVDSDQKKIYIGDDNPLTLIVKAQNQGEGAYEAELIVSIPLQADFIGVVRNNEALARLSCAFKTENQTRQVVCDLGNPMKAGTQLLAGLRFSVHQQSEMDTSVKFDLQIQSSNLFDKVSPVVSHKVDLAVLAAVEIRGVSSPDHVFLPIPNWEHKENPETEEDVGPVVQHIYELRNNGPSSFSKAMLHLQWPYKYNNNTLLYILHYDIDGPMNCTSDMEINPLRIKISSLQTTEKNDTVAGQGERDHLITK
T1 sequence (P06756 891-1048 limits assumed): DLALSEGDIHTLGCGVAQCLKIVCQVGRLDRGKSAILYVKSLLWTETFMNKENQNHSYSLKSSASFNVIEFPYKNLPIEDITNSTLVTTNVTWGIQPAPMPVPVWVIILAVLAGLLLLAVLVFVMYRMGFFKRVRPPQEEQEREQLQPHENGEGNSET
T1 sequence (P05106 27-788): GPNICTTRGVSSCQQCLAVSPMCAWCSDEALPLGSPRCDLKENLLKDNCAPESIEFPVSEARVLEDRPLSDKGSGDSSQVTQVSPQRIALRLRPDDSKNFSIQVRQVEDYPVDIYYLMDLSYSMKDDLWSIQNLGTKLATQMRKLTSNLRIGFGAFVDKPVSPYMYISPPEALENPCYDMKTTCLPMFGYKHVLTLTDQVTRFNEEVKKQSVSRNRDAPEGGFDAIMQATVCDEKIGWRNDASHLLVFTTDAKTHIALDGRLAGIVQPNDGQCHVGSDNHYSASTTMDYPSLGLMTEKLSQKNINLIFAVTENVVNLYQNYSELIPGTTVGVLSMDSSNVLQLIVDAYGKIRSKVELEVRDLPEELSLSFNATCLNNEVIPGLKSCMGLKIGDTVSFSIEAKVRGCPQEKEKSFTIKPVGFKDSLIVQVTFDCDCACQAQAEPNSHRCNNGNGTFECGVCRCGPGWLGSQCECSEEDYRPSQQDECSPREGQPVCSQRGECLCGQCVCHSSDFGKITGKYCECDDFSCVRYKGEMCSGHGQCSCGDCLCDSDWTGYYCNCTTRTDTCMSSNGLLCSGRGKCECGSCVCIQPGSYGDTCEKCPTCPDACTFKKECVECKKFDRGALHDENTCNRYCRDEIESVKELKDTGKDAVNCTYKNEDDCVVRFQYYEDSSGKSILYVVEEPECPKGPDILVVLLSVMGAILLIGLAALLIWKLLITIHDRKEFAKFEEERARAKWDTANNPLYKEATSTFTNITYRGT

melting point | IC50 [1] [µM] | Compound
210 °C (dec.) | – | CC(C)COC(=O)[C@H](CNC(=O)c1ccc(CCC(=O)NC2=NCCCN2)s1)NC(=O)OCC12CC3CC(CC(C3)C1)C2
130 °C | – | O=C(O)C[C@H](NC(=O)c1ccc(CCC(=O)NC2=NCCCN2)s1)c1ccc2c(c1)OCO2
160 °C (dec.) | – | CC(C)OC(=O)[C@H](CNC(=O)c1ccc(CCC(=O)NC2=NCCCN2)s1)NC(=O)OCC12CC3CC(CC(C3)C1)C2
– | > 10 | O=C(/C=C/c1ccc(C(=O)NC[C@H](NC(=O)OCc2ccccc2)C(=O)O)s1)NC1=NCCCN1 [Example 14, (2S)-2-Benzyloxycarbonylamino-3-((5-(2-(1,4,5,6-tetrahydropyrimidin-2-ylcarbamoyl)-vinyl)-thiophene-2-carbonyl)-amino)-propionic Acid]

From US6660728B2, “Thienyl substituted acylguanidines as inhibitors of bone resorption and vitronectin receptor antagonists” (Aventis Pharma Deutschland GmbH, priority 1998, dated 2003)
